Experiment [1] deals with HCV replicon (5-2 Luc replicon-comprising cells). Kind of experiment: HCV replicon assay (luciferase). The class given is cell-based. Particulars: 5-2 Luc replicon cells, 24 hours with compound; read-out: Replicon IC50 (50% reduction in luciferase activity). An excerpt:
In one embodiment, the inhibitory activity of the compounds can be confirmed in a replicon assay that assesses the ability of a test compound to block or inhibit HCV replication in replicon cells. One example of a suitable replicon assay is the liver cell-line Huh 7-based replicon assay described in Lohmann et al., 1999, Science 285:110-113. A specific example of this replicon assay which utilizes luciferase translation is provided in the Examples Section. In one embodiment of this assay, the amount of test compound that yields a 50% reduction in translation as compared to a control cell (IC50) may be determined.
The inhibitory activity of certain exemplary compounds of the invention was confirmed using an HCV replicon assay. The HCV replicon can include such features as the HCV 5′ untranslated region including the HCV IRES, the HCV 3′ untranslated region, selected HCV genes encoding HCV polypeptides, selectable markers, and a reporter gene such as luciferase, GFP, etc. In the assay, actively dividing 5-2 Luc replicon-comprising cells (obtained from Ralf Bartenschlager; see Lohmann et al., 1999, Science 285:110-113) were seeded ata density of between about 5,000 and 7,500 cells/well onto 96 well plates (about 90 μl of cells per well) and incubated at 37° C. and 5% CO2 for 24 hours. Then, the test compound (in a volume of about 10 μl) was added to the wells at various concentrations and the cells were incubated for an additional 24 hours before luciferase assay. Briefly, the Bright-Glo reagent was diluted 1:1 with PBS and 100 μl of diluted reagent was added to each well. After 5 min of incubation at room temperature, luciferin emission was quantified with a luminometer. In this assay, the amount of test compound that yielded a 50% reduction in luciferase activity (IC50) was determined.
In general terms: A replicon is a self-replicating genome or part of one, used to study replication in cells.

For experiment [2], the system named is HCV nonstructural protein NS5A or NS3. Kind of experiment: Quantitative Western blot assay in 9-13 replicon cells. The format is cell-based. The note with it: second symbol of column Replicon/Western, 48 hours with compound, read-out: Western IC50 (50% reduction in the amount of NS5A or NS3 protein). The method, then: Alternatively, the inhibitory activity of the compounds can be confirmed using a quantitative Western immunoblot assay utilizing antibodies specific for HCV non-structural proteins, such as NS3, NS4A NS5A and NS5B. In one embodiment of this assay, replicon cells are treated with varying concentrations of test compound to determine the concentration of test compound that yields a 50% reduction in the amount of a non-structural protein produced as compared to a control sample (IC50). A single non-structural protein may be quantified or multiple non-structural proteins may be quantified. Antibodies suitable for carrying out such immunoblot assays are available commercially (e.g., from BIODESIGN International, Saco, Me.).
Certain exemplary compounds of the invention were also tested for their ability to inhibit HCV replication using a quantitative Western blot analysis with antibodies specific for the HCV nonstructural protein NS5A or NS3. Actively dividing 9-13 replicon cells were seeded into 6-well plates at a density of 1×10^5 cells/well in a volume of 2 ml/well and incubated at 37° C. and 5% CO2 for 24 hours. Various concentrations of test compounds (in a volume of 10 ul) were added to the wells and the cells incubated for another 48 hours. […] The membrane was then soaked in substrate solution (Pierce) and exposed to a film or quantified using an imager. […]
On the technique in general: A western blot detects proteins with antibodies after separation by electrophoresis.

Broadly, the pIC50 is the IC50 on a negative log10 scale, so that one unit is a factor of ten.

pIC50: −log10 of the molar value.

For `CC(=O)N1CCN(c2cccc(Cl)c2-c2cc(-c3ccc(-c4noc(C(Cl)Cl)n4)c(Cl)c3)on2)CC1` [5-Dichloromethyl-3-[4-[3′-[2′-chloro-6′-(N-acetyl-4-piperazinyl)phenyl]-5′-isoxazolyl]-2-chlorophenyl]-1,2,4-oxadiazole], the pIC50 in experiment [1] is < 5.00.
Still for that read-out and setting: with `CC(=O)N1CCN(c2cccc(Cl)c2-c2cc(-c3ccc(-c4noc(C(Cl)Cl)n4)c(F)c3)on2)CC1` [5-Dichloromethyl-3-[4-[3′-[2′-chloro-6′-(N-acetyl-4-piperazinyl)phenyl]-5′-isoxazolyl]-2-fluorophenyl]-1,2,4-oxadiazole] the figure was ≥ 5.00; with `COc1cccc(C(F)(F)F)c1-c1cc(-c2cccc(-c3noc(C(Cl)Cl)n3)c2)on1` [(I) R2=CF3, R6=OMe, 5-Dichloromethyl-3-[3-[3′-(2′-methoxy-6′-trifluoromethylphenyl)-5′-isoxazolyl]phenyl]-1,2,4-oxadiazole], < 5.00.
`Clc1cccc(Cl)c1-c1cc(-c2cccc(-c3noc(C(Cl)Cl)n3)c2)on1` [(I) R2=Cl, R6=Cl, 5-Dichloromethyl-3-[3-[3′-(2′,6′-dichlorophenyl)-5′-isoxazolyl]phenyl]-1,2,4-oxadiazole]: the pIC50 in experiment [1] and in experiment [2] was ≥ 5.00 each time.
Regarding `Fc1cc(-c2cc(-c3c(Cl)cccc3Cl)no2)ccc1-c1noc(C(Cl)Cl)n1` [(I) R2=Cl, R6=Cl, R8=F, 5-Dichloromethyl-3-[4-[3′-(2′,6′-dichlorophenyl)-5′-isoxazolyl]-6-fluorophenyl]-1,2,4-oxadiazole], the pIC50 in experiment [1] is ≥ 5.00.
Same read-out and setting: the value for `Clc1cccc(Cl)c1-c1cc(-c2ccccc2-c2noc(C(Cl)Cl)n2)on1` [(II) R2=Cl, R6=Cl, 5-Dichloromethyl-3-[2-[3′-(2′,6′-dichlorophenyl)-5′-isoxazolyl]phenyl]-1,2,4-oxadiazole] was ≥ 5.00.
The same measure, in the same setting: with `Fc1cccc(C(F)(F)F)c1-c1cc(-c2ccc(-c3noc(C(Cl)Cl)n3)cc2)on1` [(III) R2=CF3, R6=F, 5-Dichloromethyl-3-[4-[3′-(2′-fluoro-6′-trifluoromethylphenyl)-5′-isoxazolyl]phenyl]-1,2,4-oxadiazole] the figure was ≥ 5.00.
For `COc1cccc(C(F)(F)F)c1-c1cc(-c2ccc(-c3noc(C(Cl)Cl)n3)cc2)on1` [(III) R2=CF3, R6=OMe, 5-Dichloromethyl-3-[4-[3′-(2′-methoxy-6′-trifluoromethylphenyl)-5′-isoxazolyl]phenyl]-1,2,4-oxadiazole], the negative-log IC50 (pIC50) in experiment [1] is ≥ 5.00.
Consider `Clc1cccc(Cl)c1-c1cc(-c2ccc(-c3noc(C(Cl)Cl)n3)cc2)on1` [(III) R2=Cl, R6=Cl, 5-Dichloromethyl-3-[4-[3′-(2′,6′-dichlorophenyl)-5′-isoxazolyl]phenyl]-1,2,4-oxadiazole], for which the negative logarithm of the IC50 (pIC50) in experiment [1] is ≥ 5.00.
Same read-out and setting: the value for `Clc1cc(-c2cc(-c3c(Cl)cccc3Cl)no2)ccc1-c1noc(C(Cl)Cl)n1` [(III) R2=Cl, R6=Cl, R8=Cl, 5-Dichloromethyl-3-[4-[3′-(2′,6′-dichlorophenyl)-5′-isoxazolyl]-2-chlorophenyl]-1,2,4-oxadiazole] was < 5.00.
On the same count and under the same terms, the value for `Cc1cc(-c2noc(C(Cl)Cl)n2)ccc1-c1cc(-c2c(Cl)cccc2Cl)no1` [(III) R2=Cl, R6=Cl, R10=Me, 5-Dichloromethyl-3-[4-[3′-(2′,6′-dichlorophenyl)-5′-isoxazolyl]-3-methylphenyl]-1,2,4-oxadiazole] was ≥ 5.00.
On the same count and under the same terms, the value for `Fc1cccc(Cl)c1-c1cc(-c2ccc(-c3noc(C(Cl)Cl)n3)cc2)on1` [(III) R2=Cl, R6=F, 5-Dichloromethyl-3-[4-[3′-(2′-chloro-6′-fluorophenyl)-5′-isoxazolyl]phenyl]-1,2,4-oxadiazole] was ≥ 5.00; that for `Clc1cccc(Cl)c1-c1cc(-c2ccnc(-c3noc(C(Cl)Cl)n3)c2)on1` [(Ia) R2=Cl, R6=Cl, 5-Dichloromethyl-3-[4-[3′-(2′,6′-dichlorophenyl)-5′-isoxazolyl]-4-pyridyl]-1,2,4-oxadiazole] was < 5.00.
